Reference: ChEMBL document CHEMBL2157915, “Identification of a Natural Product Antagonist against the Botulinum Neurotoxin Light Chain Protease” (ACS Med Chem Lett, 2010)
pEC50, pIC50, pKi: −log10 of the molar value. The source made the active and inactive calls. The calls are words filed in the database; no cut-off is given here.

How the values were obtained:
[1] = biological target: Botulinum neurotoxin type A (Clostridium botulinum) (UniProt P0DPI0); conditions: 90 uM
[2] = biological target: T1, Botulinum neurotoxin type A (Clostridium botulinum, UniProt P0DPI0)
[3] = biological target: T1, Botulinum neurotoxin type A; remark: listed apart in the source
[4] = biological target: Botulinum neurotoxin type A (Clostridium botulinum) (UniProt P0DPI0); conditions: 5 uM
[5] = biological target: Botulinum neurotoxin type A (Clostridium botulinum) (UniProt P0DPI0)
[6] = biological target: T1, Botulinum neurotoxin type A; remark: listed apart in the source
[7] = biological target: Botulinum neurotoxin type A (Clostridium botulinum) (UniProt P0DPI0); conditions: 150 uM
[8] = biological target: T1, Botulinum neurotoxin type A; remark: listed apart in the source
[9] = biological target: Botulinum neurotoxin type A (Clostridium botulinum) (UniProt P0DPI0); conditions: 500 uM

T1 sequence (P0DPI0 2-448 limits assumed): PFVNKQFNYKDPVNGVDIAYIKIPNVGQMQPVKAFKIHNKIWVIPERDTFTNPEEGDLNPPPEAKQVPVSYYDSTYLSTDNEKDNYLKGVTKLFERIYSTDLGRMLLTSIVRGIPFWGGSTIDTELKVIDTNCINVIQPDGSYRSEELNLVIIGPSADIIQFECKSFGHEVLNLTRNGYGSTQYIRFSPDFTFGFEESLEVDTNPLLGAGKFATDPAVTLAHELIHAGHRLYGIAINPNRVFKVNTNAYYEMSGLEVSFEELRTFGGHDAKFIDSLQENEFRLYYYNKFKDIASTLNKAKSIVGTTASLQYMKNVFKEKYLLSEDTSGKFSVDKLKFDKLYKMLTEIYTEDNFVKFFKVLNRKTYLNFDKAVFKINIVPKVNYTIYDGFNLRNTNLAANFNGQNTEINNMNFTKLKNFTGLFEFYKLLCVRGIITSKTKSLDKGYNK
Chain of Botulinum neurotoxin type A (Clostridium botulinum) (P0DPI0 2-448 limits assumed): as above

| Structure (SMILES) | inhibition [1] [%] | pIC50 [2] | pKi [3] | inhibition [4] | Ratio IC50 [5] | pEC50 [6] | inhibition [7] [%] | IC50 [8] | inhibition [9] |
| --- | --- | --- | --- | --- | --- | --- | --- | --- | --- |
| COC(=O)c1ccc(O)c2nc3c(C=O)c(O)cc(O)c3nc12 [LOMOFUNGIN] | 10 | ≤ 4.30 | 5.17 | Active | 20 | 3.88 | > 70 |  |  |
| Oc1cccc2cccnc12 [OXYQUINOLINE] |  |  |  |  |  |  |  | Not Active | inactive |
